PubChem BioAssay (NCI)
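Interpolation was linear, between the two tested concentrations surrounding the appropriate level; five concentrations were tested over 48 hours in 96-well plates. TGI: total growth inhibition.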

How the values were obtained:
Assay in all cases: NCI tumour cell line growth inhibition, 48 h
SF-268 CNS = tested on: SF-268 CNS
DU-145 prostate = tested on: DU-145 prostate
HCT-15 colon = tested on: HCT-15 colon
SR leukemia = tested on: SR leukemia
OVCAR-3 ovarian = tested on: OVCAR-3 ovarian
A549 NSCLC = tested on: A549 NSCLC
A498 renal = tested on: A498 renal
MALME-3M melanoma = tested on: MALME-3M melanoma
RXF 393 renal = tested on: RXF 393 renal
MOLT-4 leukemia = tested on: MOLT-4 leukemia
M14 melanoma = tested on: M14 melanoma
SF-539 CNS = tested on: SF-539 CNS
EKVX NSCLC = tested on: EKVX NSCLC
HOP-62 NSCLC = tested on: HOP-62 NSCLC
HOP-92 NSCLC = tested on: HOP-92 NSCLC
MCF7 breast = tested on: MCF7 breast
K-562 leukemia = tested on: K-562 leukemia
LOX IMVI melanoma = tested on: LOX IMVI melanoma
CCRF-CEM leukemia = tested on: CCRF-CEM leukemia
SN12C renal = tested on: SN12C renal
MDA-MB-435 = tested on: MDA-MB-435
KM12 colon = tested on: KM12 colon
HCC-2998 colon = tested on: HCC-2998 colon
OVCAR-8 ovarian = tested on: OVCAR-8 ovarian
HCT-116 colon = tested on: HCT-116 colon
HT29 colon = tested on: HT29 colon
SNB-75 CNS = tested on: SNB-75 CNS
SNB-19 CNS = tested on: SNB-19 CNS
SK-MEL-5 melanoma = tested on: SK-MEL-5 melanoma
UACC-62 melanoma = tested on: UACC-62 melanoma
NCI-H522 lung = tested on: NCI-H522 lung
MDA-N = tested on: MDA-N
SW-620 colon = tested on: SW-620 colon
PC-3 prostate = tested on: PC-3 prostate
SK-MEL-28 melanoma = tested on: SK-MEL-28 melanoma
OVCAR-4 ovarian = tested on: OVCAR-4 ovarian
HS 578T breast = tested on: HS 578T breast
NCI/ADR-RES ovarian = tested on: NCI/ADR-RES ovarian
RPMI-8226 leukemia = tested on: RPMI-8226 leukemia
HL-60(TB) leukemia = tested on: HL-60(TB) leukemia
CAKI-1 renal = tested on: CAKI-1 renal
ACHN renal = tested on: ACHN renal
NCI-H23 lung = tested on: NCI-H23 lung
786-0 renal = tested on: 786-0 renal
BT-549 breast = tested on: BT-549 breast
SF-295 CNS = tested on: SF-295 CNS
T-47D breast = tested on: T-47D breast
UACC-257 melanoma = tested on: UACC-257 melanoma
NCI-H460 lung = tested on: NCI-H460 lung
OVCAR-5 ovarian = tested on: OVCAR-5 ovarian
SK-MEL-2 melanoma = tested on: SK-MEL-2 melanoma
NCI-H226 lung = tested on: NCI-H226 lung
UO-31 renal = tested on: UO-31 renal
COLO 205 colon = tested on: COLO 205 colon
SK-OV-3 ovarian = tested on: SK-OV-3 ovarian
IGROV1 ovarian = tested on: IGROV1 ovarian

C(=N\c1cc2cc(Sc3ccccc3)ccc2[nH]1)/c1ccccc1
TGI (SF-268 CNS): > 12.5 µM
TGI (DU-145 prostate): > 12.5 µM
TGI (HCT-15 colon): > 12.5 µM
TGI (SR leukemia): > 12.5 µM
TGI (OVCAR-3 ovarian): > 12.5 µM
TGI (A549 NSCLC): > 12.5 µM
TGI (A498 renal): > 12.5 µM
TGI (MALME-3M melanoma): > 12.5 µM
TGI (RXF 393 renal): > 12.5 µM
TGI (MOLT-4 leukemia): > 12.5 µM
TGI (M14 melanoma): > 12.5 µM
TGI (SF-539 CNS): > 12.5 µM
TGI (EKVX NSCLC): > 12.5 µM
TGI (HOP-62 NSCLC): > 12.5 µM
TGI (HOP-92 NSCLC): > 12.5 µM
TGI (MCF7 breast): > 12.5 µM
TGI (K-562 leukemia): > 12.5 µM
TGI (LOX IMVI melanoma): > 12.5 µM
TGI (CCRF-CEM leukemia): > 12.5 µM
TGI (SN12C renal): > 12.5 µM
TGI (MDA-MB-435): > 12.5 µM
TGI (KM12 colon): > 12.5 µM
TGI (HCC-2998 colon): > 12.5 µM
TGI (OVCAR-8 ovarian): > 12.5 µM
TGI (HCT-116 colon): > 12.5 µM
TGI (HT29 colon): > 12.5 µM
TGI (SNB-75 CNS): > 12.5 µM
TGI (SNB-19 CNS): > 12.5 µM
TGI (SK-MEL-5 melanoma): > 12.5 µM
TGI (UACC-62 melanoma): > 12.5 µM
TGI (NCI-H522 lung): > 12.5 µM
TGI (MDA-N): > 12.5 µM
TGI (SW-620 colon): > 12.5 µM
TGI (PC-3 prostate): > 12.5 µM
TGI (SK-MEL-28 melanoma): > 12.5 µM
TGI (OVCAR-4 ovarian): > 12.5 µM
TGI (HS 578T breast): > 12.5 µM
TGI (NCI/ADR-RES ovarian): > 12.5 µM
TGI (RPMI-8226 leukemia): > 12.5 µM
TGI (HL-60(TB) leukemia): > 12.5 µM
TGI (CAKI-1 renal): > 12.5 µM
TGI (ACHN renal): > 12.5 µM
TGI (NCI-H23 lung): > 12.5 µM
TGI (786-0 renal): > 12.5 µM
TGI (BT-549 breast): > 12.5 µM
TGI (SF-295 CNS): > 12.5 µM
TGI (T-47D breast): > 12.5 µM
TGI (UACC-257 melanoma): > 12.5 µM

CCOc1cc(NC(C)=O)ccc1C(=O)NNS(=O)(=O)c1ccc(Cl)cc1Cl
TGI (SF-268 CNS): > 50 µM
TGI (NCI-H460 lung): > 50 µM
TGI (DU-145 prostate): > 50 µM
TGI (HCT-15 colon): > 50 µM
TGI (SR leukemia): > 50 µM
TGI (OVCAR-3 ovarian): > 50 µM
TGI (A549 NSCLC): > 50 µM
TGI (OVCAR-5 ovarian): > 50 µM
TGI (A498 renal): > 50 µM
TGI (MALME-3M melanoma): > 50 µM
TGI (RXF 393 renal): > 50 µM
TGI (MOLT-4 leukemia): 22 µM
TGI (M14 melanoma): > 50 µM
TGI (SF-539 CNS): > 50 µM
TGI (EKVX NSCLC): > 50 µM
TGI (HOP-62 NSCLC): > 50 µM
TGI (HOP-92 NSCLC): > 50 µM
TGI (MCF7 breast): > 50 µM
TGI (K-562 leukemia): 21.4 µM
TGI (LOX IMVI melanoma): > 50 µM
TGI (SK-MEL-2 melanoma): > 50 µM
TGI (CCRF-CEM leukemia): > 50 µM
TGI (SN12C renal): > 50 µM
TGI (MDA-MB-435): 45.1 µM
TGI (KM12 colon): > 50 µM
TGI (HCC-2998 colon): > 50 µM
TGI (OVCAR-8 ovarian): > 50 µM
TGI (HCT-116 colon): > 50 µM
TGI (HT29 colon): > 50 µM
TGI (SNB-75 CNS): > 50 µM
TGI (SNB-19 CNS): > 50 µM
TGI (SK-MEL-5 melanoma): > 50 µM
TGI (UACC-62 melanoma): > 50 µM
TGI (NCI-H522 lung): > 50 µM
TGI (MDA-N): 23.1 µM
TGI (SW-620 colon): > 50 µM
TGI (PC-3 prostate): > 50 µM
TGI (SK-MEL-28 melanoma): > 50 µM
TGI (NCI-H226 lung): > 50 µM
TGI (OVCAR-4 ovarian): > 50 µM
TGI (HS 578T breast): > 50 µM
TGI (NCI/ADR-RES ovarian): > 50 µM
TGI (RPMI-8226 leukemia): 26.6 µM
TGI (HL-60(TB) leukemia): > 50 µM
TGI (CAKI-1 renal): > 50 µM
TGI (ACHN renal): > 50 µM
TGI (UO-31 renal): > 50 µM
TGI (COLO 205 colon): > 50 µM
TGI (NCI-H23 lung): > 50 µM
TGI (786-0 renal): > 50 µM
TGI (BT-549 breast): > 50 µM
TGI (SK-OV-3 ovarian): > 50 µM
TGI (SF-295 CNS): > 50 µM
TGI (T-47D breast): > 50 µM
TGI (IGROV1 ovarian): > 50 µM
TGI (UACC-257 melanoma): > 50 µM

CCC(=O)Nc1cccc(NC(=O)c2c(Cl)c(Cl)c(Cl)c(Cl)c2-c2nc3ccccc3[nH]2)c1
TGI (SF-268 CNS): > 100 µM
TGI (NCI-H460 lung): > 100 µM
TGI (DU-145 prostate): > 100 µM
TGI (HCT-15 colon): > 100 µM
TGI (SR leukemia): > 100 µM
TGI (OVCAR-3 ovarian): > 100 µM
TGI (A549 NSCLC): > 100 µM
TGI (OVCAR-5 ovarian): > 100 µM
TGI (A498 renal): > 100 µM
TGI (MALME-3M melanoma): > 100 µM
TGI (RXF 393 renal): > 100 µM
TGI (MOLT-4 leukemia): > 100 µM
TGI (M14 melanoma): > 100 µM
TGI (SF-539 CNS): > 100 µM
TGI (EKVX NSCLC): > 100 µM
TGI (HOP-92 NSCLC): 66.5 µM
TGI (MCF7 breast): > 100 µM
TGI (K-562 leukemia): > 100 µM
TGI (LOX IMVI melanoma): > 100 µM
TGI (SK-MEL-2 melanoma): > 100 µM
TGI (CCRF-CEM leukemia): > 100 µM
TGI (SN12C renal): > 100 µM
TGI (MDA-MB-435): > 100 µM
TGI (KM12 colon): > 100 µM
TGI (HCC-2998 colon): > 100 µM
TGI (OVCAR-8 ovarian): > 100 µM
TGI (HCT-116 colon): > 100 µM
TGI (HT29 colon): > 100 µM
TGI (SNB-75 CNS): > 100 µM
TGI (SNB-19 CNS): > 100 µM
TGI (SK-MEL-5 melanoma): > 100 µM
TGI (UACC-62 melanoma): > 100 µM
TGI (NCI-H522 lung): > 100 µM
TGI (MDA-N): > 100 µM
TGI (SW-620 colon): > 100 µM
TGI (PC-3 prostate): > 100 µM
TGI (SK-MEL-28 melanoma): > 100 µM
TGI (OVCAR-4 ovarian): > 100 µM
TGI (HS 578T breast): > 100 µM
TGI (NCI/ADR-RES ovarian): > 100 µM
TGI (RPMI-8226 leukemia): > 100 µM
TGI (HL-60(TB) leukemia): > 100 µM
TGI (CAKI-1 renal): > 100 µM
TGI (ACHN renal): > 100 µM
TGI (UO-31 renal): > 100 µM
TGI (COLO 205 colon): > 100 µM
TGI (NCI-H23 lung): > 100 µM
TGI (786-0 renal): > 100 µM
TGI (BT-549 breast): > 100 µM
TGI (SF-295 CNS): > 100 µM
TGI (T-47D breast): > 100 µM
TGI (IGROV1 ovarian): > 100 µM
TGI (UACC-257 melanoma): > 100 µM
